# Laboratory results taken from patent US6492350B2, “Chitin oligosaccharides and/or chitosan oligosaccharides for preventing or treating common cold or treating pain” (JDC (Hawaii) Inc., priority 2000, dated 2002).
# Assays:
# [1] = in vivo, po; cited from earlier work
# [2] = Clinical study of CCOS analgesia in volunteers with painful conditions (short-form McGill Pain Questionnaire); type: in vivo, human; conditions: patient
# Procedure: This modification is a hybrid form utilizing both a Visual Analogue Scale rating pain from 0 (no pain) to 5 (excruciating) as well as a pain questionnaire rating the pain from 0 (no pain) to 3 (severe) along with the following descriptions:
# To test the effectiveness of chitin chitosan oligosaccharide (CCOS) in providing satisfactory analgesia in both nociceptive and neuropathic pain, a clinical study was conducted with volunteers suffering from a variety of rather common painful conditions (see Table 11). Pain can be an extremely subjective phenomena; there is no laboratory or radiological test to measure its severity or indeed even its presence as described elsewhere p. 8). […] “There is a whole literature of validated, subjective tools that are absolutely reliable” (Melvin C. Gitlin, MD Professor of Anesthesiology, Tulane University School of Medicine and Director of the Pain Management Center at the Tulane University Hospital Clinic) The conditions of all of the volunteers in this study have been documented by physicians, in some cases more than one, and their pain substantiated. […] Our methods, utilizing human subjects is equally valid and acceptable (36). (see Modified McGill Pain form used as the basis to evaluate pain).
molecule,measurement,setting,value
Chitin,absorbed orally,[1],20-40%
CC(=O)Oc1ccccc1C(=O)O [ASA],Degree of Pain Reduction,"[2]; acute pharangitis, nociceptive (inflammatory), CCOS 150 mg STAT then 100 mg PRN",no significant improvement
"CC(=O)Nc1ccc(O)cc1 [Tylenol, Acetaminophen]",Degree of Pain Reduction,"[2]; low back pain secondary to strain, nociceptive, CCOS 400 mg STAT then 300 mg QID",little or no effect
